Experimental data reported in US9409905B2, “Antibacterial compounds and methods for use” (PTC THERAPEUTICS, INC., priority 2011, dated 2016).
In brackets after ≈: the same amount, converted by molar mass.

How the values were obtained:
[1] = system: Acinetobacter baumannii (A. baumannii) BAA747; experiment: Antibacterial activity, MIC (Table 4); assay type: cell-based; details: A. baumannii BAA747, read-out: MIC, BAA747
Summary of the method: (§1)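 Values are minimum inhibitory concentrations in μg/mL from broth microdilution, meaning no macroscopically visible growth at that concentration. Resistant MXX isolates are multi-drug resistant clinical strains.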

[2] = system: Klebsiella pneumoniae (K. pneumoniae) 35657; experiment: Antibacterial activity, MIC (Table 4); assay type: cell-based; details: K. pneumoniae 35657, read-out: MIC, 35657
Summary of the method: as §1

[3] = system: Neisseria meningitidis (N. meningitidis) 13090; experiment: Antibacterial activity, MIC (Table 8); assay type: cell-based
Summary of the method: (§2)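 Values are minimum inhibitory concentrations in μg/mL, determined by microbroth dilution as the lowest concentration with no macroscopically visible growth.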

A. baumannii MXX2240 = experiment: Antibacterial activity, MIC, resistant strain (Table 4); assay type: cell-based; details: Acinetobacter baumannii, MXX2240; resistant A. baumannii MMX2240, multi-drug resistant clinical isolate; read-out: MIC, MMX2240
Summary of the method: as §1

K. pneumoniae MXX1232 = experiment: as above; assay type: cell-based; details: Klebsiella pneumoniae, MXX1232; resistant K. pneumoniae MMX1232, multi-drug resistant clinical isolate; read-out: MIC, MMX1232
Summary of the method: as §1

[4] = system: Staphylococcus aureus (S. aureus) 29213; experiment: Antibacterial activity, microbroth dilution MIC (Table 1); assay type: cell-based; details: microbroth dilution, Gram-positive S. aureus 29213, read-out: MIC, 29213
Summary of the method: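 Lowest concentration stopping macroscopically visible growth under test conditions, by broth microdilution, defines the MIC (μg/mL).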

[5] = system: Escherichia coli (E. coli) BAS849; experiment: as above; assay type: cell-based; details: microbroth dilution, super sensitive Gram-negative E. coli BAS849, read-out: MIC, BAS849
Summary of the method: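 In a microbroth dilution test, the minimum inhibitory concentration was defined as the lowest compound level preventing growth seen by eye, and was given in μg/mL.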

E. coli 25922 = experiment: as above; assay type: cell-based, Escherichia coli; details: Escherichia coli; microbroth dilution; control Gram-negative E. coli 25922 strain; read-out: MIC, 25922
Summary of the method: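 Broth microdilution against S. aureus 29213, E. coli 25922 and hypersensitive E. coli BAS849. MIC in μg/mL is the lowest drug concentration preventing macroscopically visible growth under test conditions.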

[6] = system: Moraxella catarrhalis (M. catarrhalis) 25238; experiment: Antibacterial activity, MIC (Table 7); assay type: cell-based
Summary of the method: as §2

E. coli ELZ4251 = experiment: Antibacterial activity, MIC, multi-drug resistant clinical isolate (Table 3); assay type: cell-based; details: Escherichia coli
Summary of the method: (§3)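 Microbroth dilution. Endpoint: absence of macroscopically visible growth. Value = MIC, μg/mL.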

E. coli ELZ4000 = experiment: as above; assay type: cell-based; details: Escherichia coli, ELZ4000, read-out: MIC ELZ4000
Summary of the method: as §3

E. coli LZ3111 = experiment: Antibacterial activity, MIC, quinolone resistant strain (Table 2); assay type: cell-based; details: Escherichia coli, LZ3111, read-out: MIC LZ3111
Summary of the method: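 Strain carries mutations conferring high-level quinolone resistance; tested by microbroth dilution, MIC recorded in μg/mL as lowest concentration preventing visible growth.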

[7] = system: Haemophilus influenzae (H. influenzae) 49247; experiment: Antibacterial activity, MIC (Table 6); assay type: cell-based
Summary of the method: as §2

[8] = system: Pseudomonas aeruginosa (P. aeruginosa) 27853; experiment: Antibacterial activity, MIC (Table 5); assay type: cell-based; details: P. aeruginosa 27853, read-out: MIC, 27853
Summary of the method: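 Compounds are serially diluted in broth and inoculated with the organism. Growth is then inspected macroscopically, and the lowest concentration showing none is taken as the MIC (μg/mL).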

## CCc1c(-c2ccc3c(c2)cc(CN)n3C)[nH]c(=O)c(C(=O)O)c1O [Cpd 290, 6-(2-(aminomethyl)-1-methyl-1H-indol-5-yl)-5-ethyl-4-hydroxy-2-oxo-1,2-dihydropyridine-3-carboxylic acid]
[1]
  MIC: 1 to 3.5 µg/mL (≈ 2.93 to 10.3 µM)
[2]
  MIC: 3.5 to 12.5 µg/mL (≈ 10.3 to 36.6 µM)
[3]
  MIC: < 1 µg/mL
A. baumannii MXX2240
  MIC: 12.5 to 150 µg/mL (≈ 36.6 to 439 µM)
K. pneumoniae MXX1232
  MIC: 12.5 to 150 µg/mL (≈ 36.6 to 439 µM)
[4]
  MIC: 3.5 to 12.5 µg/mL (≈ 10.3 to 36.6 µM)
[5]
  MIC: < 1 µg/mL
E. coli 25922
  MIC: < 1 µg/mL
[6]
  MIC: 1 to 3.5 µg/mL (≈ 2.93 to 10.3 µM)
E. coli ELZ4251
  MIC: 3.5 to 12.5 µg/mL (≈ 10.3 to 36.6 µM)
E. coli ELZ4000
  MIC: 3.5 to 12.5 µg/mL (≈ 10.3 to 36.6 µM)
E. coli LZ3111
  MIC: 1 to 3.5 µg/mL (≈ 2.93 to 10.3 µM)
[7]
  MIC: 1 to 3.5 µg/mL (≈ 2.93 to 10.3 µM)
[8]
  MIC: 1 to 3.5 µg/mL (≈ 2.93 to 10.3 µM)

## CCc1c(-c2ccc3c(c2)cc(CN2CCC(NC)CC2)n3C)[nH]c(=O)c(C(=O)O)c1O [Cpd 256, 5-ethyl-4-hydroxy-6-(1-methyl-2-((4-(methylamino)piperidin-1-yl)methyl)-1H-indol-5-yl)-2-oxo-1,2-dihydropyridine-3-carboxylic acid]
[1]
  MIC: 12.5 to 150 µg/mL (≈ 28.5 to 342 µM)
[2]
  MIC: 1 to 3.5 µg/mL (≈ 2.28 to 7.98 µM)
[3]
  MIC: 1 to 3.5 µg/mL (≈ 2.28 to 7.98 µM)
A. baumannii MXX2240
  MIC: 12.5 to 150 µg/mL (≈ 28.5 to 342 µM)
K. pneumoniae MXX1232
  MIC: 12.5 to 150 µg/mL (≈ 28.5 to 342 µM)
[4]
  MIC: 3.5 to 12.5 µg/mL (≈ 7.98 to 28.5 µM)
[5]
  MIC: < 1 µg/mL
E. coli 25922
  MIC: 1 to 3.5 µg/mL (≈ 2.28 to 7.98 µM)
[6]
  MIC: 1 to 3.5 µg/mL (≈ 2.28 to 7.98 µM)
E. coli ELZ4251
  MIC: 12.5 to 150 µg/mL (≈ 28.5 to 342 µM)
E. coli ELZ4000
  MIC: 12.5 to 150 µg/mL (≈ 28.5 to 342 µM)
E. coli LZ3111
  MIC: 1 to 3.5 µg/mL (≈ 2.28 to 7.98 µM)
[7]
  MIC: 1 to 3.5 µg/mL (≈ 2.28 to 7.98 µM)
[8]
  MIC: 3.5 to 12.5 µg/mL (≈ 7.98 to 28.5 µM)

## CCc1c(-c2ccc3c(ccn3C)c2)[nH]c(=O)c(C(=O)O)c1O [Cpd 22, 5-ethyl-4-hydroxy-6-(1-methyl-1H-indol-5-yl)-2-oxo-1,2-dihydropyridine-3-carboxylic acid]
[1]
  MIC: < 1 µg/mL
[2]
  MIC: 1 to 3.5 µg/mL (≈ 3.2 to 11.2 µM)
[3]
  MIC: < 1 µg/mL
A. baumannii MXX2240
  MIC: < 1 µg/mL
K. pneumoniae MXX1232
  MIC: 12.5 to 150 µg/mL (≈ 40 to 480 µM)
[4]
  MIC: 1 to 3.5 µg/mL (≈ 3.2 to 11.2 µM)
[5]
  MIC: < 1 µg/mL
E. coli 25922
  MIC: < 1 µg/mL
[6]
  MIC: < 1 µg/mL
E. coli ELZ4251
  MIC: 3.5 to 12.5 µg/mL (≈ 11.2 to 40 µM)
E. coli ELZ4000
  MIC: 3.5 to 12.5 µg/mL (≈ 11.2 to 40 µM)
E. coli LZ3111
  MIC: 1 to 3.5 µg/mL (≈ 3.2 to 11.2 µM)
[7]
  MIC: < 1 µg/mL
[8]
  MIC: 12.5 to 150 µg/mL (≈ 40 to 480 µM)

## CCc1c(-c2ccc3c(c2)cc(CN(CC)CC)n3C)[nH]c(=O)c(C(=O)O)c1O [Cpd 167, 6-(2-((diethylamino)methyl)-1-methyl-1H-indol-5-yl)-5-ethyl-4-hydroxy-2-oxo-1,2-dihydropyridine-3-carboxylic acid]
[1]
  MIC: 1 to 3.5 µg/mL (≈ 2.52 to 8.81 µM)
[2]
  MIC: 1 to 3.5 µg/mL (≈ 2.52 to 8.81 µM)
[3]
  MIC: < 1 µg/mL
A. baumannii MXX2240
  MIC: 3.5 to 12.5 µg/mL (≈ 8.81 to 31.4 µM)
K. pneumoniae MXX1232
  MIC: 12.5 to 150 µg/mL (≈ 31.4 to 377 µM)
[4]
  MIC: 12.5 to 150 µg/mL (≈ 31.4 to 377 µM)
[5]
  MIC: < 1 µg/mL
E. coli 25922
  MIC: < 1 µg/mL
[6]
  MIC: < 1 µg/mL
E. coli ELZ4251
  MIC: 3.5 to 12.5 µg/mL (≈ 8.81 to 31.4 µM)
E. coli ELZ4000
  MIC: 12.5 to 150 µg/mL (≈ 31.4 to 377 µM)
E. coli LZ3111
  MIC: 3.5 to 12.5 µg/mL (≈ 8.81 to 31.4 µM)
[7]
  MIC: < 1 µg/mL
[8]
  MIC: 12.5 to 150 µg/mL (≈ 31.4 to 377 µM)

## CCc1c(-c2ccc3c(cnn3C)c2)[nH]c(=O)c(C(=O)O)c1O [Cpd 42, 5-ethyl-4-hydroxy-6-(1-methyl-1H-indazol-5-yl)-2-oxo-1,2-dihydropyridine-3-carboxylic acid]
[1]
  MIC: 1 to 3.5 µg/mL (≈ 3.19 to 11.2 µM)
[2]
  MIC: 3.5 to 12.5 µg/mL (≈ 11.2 to 39.9 µM)
[3]
  MIC: < 1 µg/mL
A. baumannii MXX2240
  MIC: 3.5 to 12.5 µg/mL (≈ 11.2 to 39.9 µM)
K. pneumoniae MXX1232
  MIC: 12.5 to 150 µg/mL (≈ 39.9 to 479 µM)
[4]
  MIC: 12.5 to 150 µg/mL (≈ 39.9 to 479 µM)
[5]
  MIC: < 1 µg/mL
E. coli 25922
  MIC: 3.5 to 12.5 µg/mL (≈ 11.2 to 39.9 µM)
[6]
  MIC: < 1 µg/mL
E. coli ELZ4251
  MIC: 3.5 to 12.5 µg/mL (≈ 11.2 to 39.9 µM)
E. coli ELZ4000
  MIC: 3.5 to 12.5 µg/mL (≈ 11.2 to 39.9 µM)
E. coli LZ3111
  MIC: 1 to 3.5 µg/mL (≈ 3.19 to 11.2 µM)
[7]
  MIC: < 1 µg/mL
[8]
  MIC: 12.5 to 150 µg/mL (≈ 39.9 to 479 µM)
